PubChem BioAssay (NCI)
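Each compound was tested at five concentrations against cells in 96-well plates for 48 hours. At the TGI there is no net growth.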

Legend:
Experiment in all cases: inhibition of tumour cell growth, NCI panel, 48 h
SK-MEL-28 melanoma = test system: SK-MEL-28 melanoma
U251 CNS = test system: U251 CNS
HCC-2998 colon = test system: HCC-2998 colon
SR leukemia = test system: SR leukemia
TK-10 renal = test system: TK-10 renal
SK-OV-3 ovarian = test system: SK-OV-3 ovarian
MALME-3M melanoma = test system: MALME-3M melanoma
DU-145 prostate = test system: DU-145 prostate
MDA-MB-231 breast = test system: MDA-MB-231 breast
NCI-H226 lung = test system: NCI-H226 lung
HS 578T breast = test system: HS 578T breast
HT29 colon = test system: HT29 colon
SF-268 CNS = test system: SF-268 CNS
A498 renal = test system: A498 renal
A549 NSCLC = test system: A549 NSCLC
UACC-62 melanoma = test system: UACC-62 melanoma
SK-MEL-2 melanoma = test system: SK-MEL-2 melanoma
MOLT-4 leukemia = test system: MOLT-4 leukemia
SNB-75 CNS = test system: SNB-75 CNS
RPMI-8226 leukemia = test system: RPMI-8226 leukemia
NCI-H23 lung = test system: NCI-H23 lung
OVCAR-3 ovarian = test system: OVCAR-3 ovarian
EKVX NSCLC = test system: EKVX NSCLC
786-0 renal = test system: 786-0 renal
HOP-62 NSCLC = test system: HOP-62 NSCLC
HCT-116 colon = test system: HCT-116 colon
SW-620 colon = test system: SW-620 colon
OVCAR-8 ovarian = test system: OVCAR-8 ovarian
OVCAR-4 ovarian = test system: OVCAR-4 ovarian
RXF 393 renal = test system: RXF 393 renal
HCT-15 colon = test system: HCT-15 colon
KM12 colon = test system: KM12 colon
M14 melanoma = test system: M14 melanoma
UACC-257 melanoma = test system: UACC-257 melanoma
UO-31 renal = test system: UO-31 renal
MDA-MB-435 = test system: MDA-MB-435
SF-539 CNS = test system: SF-539 CNS
OVCAR-5 ovarian = test system: OVCAR-5 ovarian
COLO 205 colon = test system: COLO 205 colon
BT-549 breast = test system: BT-549 breast
NCI-H460 lung = test system: NCI-H460 lung
PC-3 prostate = test system: PC-3 prostate
SF-295 CNS = test system: SF-295 CNS
T-47D breast = test system: T-47D breast
MCF7 breast = test system: MCF7 breast
HL-60(TB) leukemia = test system: HL-60(TB) leukemia
SN12C renal = test system: SN12C renal
HOP-92 NSCLC = test system: HOP-92 NSCLC
SK-MEL-5 melanoma = test system: SK-MEL-5 melanoma
NCI/ADR-RES ovarian = test system: NCI/ADR-RES ovarian
CAKI-1 renal = test system: CAKI-1 renal
IGROV1 ovarian = test system: IGROV1 ovarian
NCI-H522 lung = test system: NCI-H522 lung
K-562 leukemia = test system: K-562 leukemia
ACHN renal = test system: ACHN renal
SNB-19 CNS = test system: SNB-19 CNS
CCRF-CEM leukemia = test system: CCRF-CEM leukemia
LOX IMVI melanoma = test system: LOX IMVI melanoma
MDA-N = test system: MDA-N
LXFL 529 NSCLC = test system: LXFL 529 NSCLC
DMS 273 small cell lung = test system: DMS 273 small cell lung
KM20L2 colon = test system: KM20L2 colon
M19-MEL melanoma = test system: M19-MEL melanoma
SNB-78 CNS = test system: SNB-78 CNS
DLD-1 colon = test system: DLD-1 colon
DMS 114 small cell lung = test system: DMS 114 small cell lung

`CC(=O)O[C@H]1CC[C@@]2(C)C(=CC[C@H]3[C@@H]4C[C@H](N5CCN(C)CC5)[C@H](OC(C)=O)[C@@]4(C)CC[C@@H]32)C1` gave a TGI (SK-MEL-28 melanoma) of 26.1 µM, a TGI (U251 CNS) of 40.5 µM and a TGI (HCC-2998 colon) of 30.1 µM. For the same compound, the TGI (SR leukemia) was 11.4 µM, the TGI (TK-10 renal) was > 100 µM and the TGI (SK-OV-3 ovarian) was > 65.8 µM. The TGI (MALME-3M melanoma) was 24.8 µM, the TGI (DU-145 prostate) was > 100 µM and the TGI (MDA-MB-231 breast) was 34.3 µM. For the same compound, the TGI (NCI-H226 lung) was > 85.6 µM, the TGI (HS 578T breast) was 61.8 µM and the TGI (HT29 colon) was 12.8 µM. The TGI (SF-268 CNS) was 42.7 µM, the TGI (A498 renal) was 48.3 µM and the TGI (A549 NSCLC) was 36 µM. It also gave a TGI (UACC-62 melanoma) of 26.4 µM, a TGI (SK-MEL-2 melanoma) of 33.3 µM and a TGI (MOLT-4 leukemia) of 16.8 µM. For the same compound, the TGI (SNB-75 CNS) was 62.6 µM, the TGI (RPMI-8226 leukemia) was 14.7 µM and the TGI (NCI-H23 lung) was 48.3 µM. The TGI (OVCAR-3 ovarian) was 21.5 µM, the TGI (EKVX NSCLC) was 59.9 µM and the TGI (786-0 renal) was 35.3 µM. The TGI (HOP-62 NSCLC) was 52.6 µM, the TGI (HCT-116 colon) was 25.7 µM and the TGI (SW-620 colon) was 29.8 µM. It also gave a TGI (OVCAR-8 ovarian) of 30.5 µM, a TGI (OVCAR-4 ovarian) of 32.6 µM and a TGI (RXF 393 renal) of 40.3 µM. For the same compound, the TGI (HCT-15 colon) was 26.6 µM, the TGI (KM12 colon) was 32.3 µM and the TGI (M14 melanoma) was 8.2 µM. For the same compound, the TGI (UACC-257 melanoma) was 17.3 µM, the TGI (UO-31 renal) was > 90.9 µM and the TGI (MDA-MB-435) was 19.2 µM. The TGI (SF-539 CNS) was 13.7 µM, the TGI (OVCAR-5 ovarian) was 76.9 µM and the TGI (COLO 205 colon) was 32.8 µM. The TGI (BT-549 breast) was 32.8 µM, the TGI (NCI-H460 lung) was 49.4 µM and the TGI (PC-3 prostate) was 32.5 µM. It also gave a TGI (SF-295 CNS) of 45.7 µM, a TGI (T-47D breast) of 41.2 µM and a TGI (MCF7 breast) of 15.3 µM. The TGI (HL-60(TB) leukemia) was 6.9 µM, the TGI (SN12C renal) was 67.8 µM and the TGI (HOP-92 NSCLC) was 92.7 µM. The TGI (SK-MEL-5 melanoma) was 12.5 µM, the TGI (NCI/ADR-RES ovarian) was 44.6 µM and the TGI (CAKI-1 renal) was > 66.5 µM. It also gave a TGI (IGROV1 ovarian) of 37.9 µM, a TGI (NCI-H522 lung) of 34.9 µM and a TGI (K-562 leukemia) of 4.07 µM. For the same compound, the TGI (ACHN renal) was > 100 µM, the TGI (SNB-19 CNS) was 58.9 µM and the TGI (CCRF-CEM leukemia) was 16 µM. For the same compound, the TGI (LOX IMVI melanoma) was 7.83 µM and the TGI (MDA-N) was 26.5 µM.
For `COCC1N=C(c2ccc(OC)c(OCc3ccccc3)c2OC)O[C@H]1c1ccccc1` (stereo partly specified), the TGI (SK-MEL-28 melanoma) was 69.8 µM, the TGI (U251 CNS) was 60.6 µM and the TGI (HCC-2998 colon) was > 100 µM. For the same compound, the TGI (TK-10 renal) was > 100 µM, the TGI (SK-OV-3 ovarian) was 96.1 µM and the TGI (NCI-H226 lung) was 81.1 µM. For the same compound, the TGI (HT29 colon) was 59.7 µM, the TGI (SF-268 CNS) was > 100 µM and the TGI (A498 renal) was 79.7 µM. The TGI (A549 NSCLC) was > 100 µM, the TGI (UACC-62 melanoma) was 51.5 µM and the TGI (SK-MEL-2 melanoma) was 53.3 µM. For the same compound, the TGI (MOLT-4 leukemia) was 23.3 µM, the TGI (SNB-75 CNS) was > 100 µM and the TGI (RPMI-8226 leukemia) was 36.9 µM. The TGI (NCI-H23 lung) was > 100 µM, the TGI (OVCAR-3 ovarian) was 55 µM and the TGI (LXFL 529 NSCLC) was 65 µM. The TGI (EKVX NSCLC) was > 100 µM, the TGI (786-0 renal) was 96.1 µM and the TGI (HOP-62 NSCLC) was > 100 µM. The TGI (HCT-116 colon) was 34.5 µM, the TGI (SW-620 colon) was > 100 µM and the TGI (OVCAR-8 ovarian) was > 100 µM. For the same compound, the TGI (OVCAR-4 ovarian) was > 100 µM, the TGI (RXF 393 renal) was 97.3 µM and the TGI (HCT-15 colon) was 94.5 µM. The TGI (DMS 273 small cell lung) was 38.6 µM, the TGI (KM12 colon) was 96.2 µM and the TGI (KM20L2 colon) was 41.1 µM. It also gave a TGI (M14 melanoma) of 35.2 µM, a TGI (UO-31 renal) of 30.1 µM and a TGI (SF-539 CNS) of 35.8 µM. It also gave a TGI (OVCAR-5 ovarian) of 71.2 µM, a TGI (M19-MEL melanoma) of 53.8 µM and a TGI (COLO 205 colon) of 41.8 µM. The TGI (NCI-H460 lung) was 35 µM, the TGI (SF-295 CNS) was 93.8 µM and the TGI (HL-60(TB) leukemia) was 40.4 µM. It also gave a TGI (SN12C renal) of 66.4 µM, a TGI (HOP-92 NSCLC) of 42.4 µM and a TGI (SK-MEL-5 melanoma) of 25.7 µM. For the same compound, the TGI (SNB-78 CNS) was 96.2 µM, the TGI (IGROV1 ovarian) was > 100 µM and the TGI (NCI-H522 lung) was 69.3 µM. For the same compound, the TGI (K-562 leukemia) was > 100 µM, the TGI (ACHN renal) was 52.4 µM and the TGI (SNB-19 CNS) was > 100 µM. For the same compound, the TGI (DLD-1 colon) was > 100 µM, the TGI (CCRF-CEM leukemia) was 60.8 µM and the TGI (LOX IMVI melanoma) was 29.6 µM. It also gave a TGI (DMS 114 small cell lung) of 44.9 µM.
For `COC(=O)/N=[N+](\[O-])C(c1ccc(Cl)cc1)c1ccc(Cl)cc1`, the TGI (SK-MEL-28 melanoma) was > 100 µM, the TGI (U251 CNS) was > 100 µM and the TGI (HCC-2998 colon) was > 100 µM. For the same compound, the TGI (SR leukemia) was > 100 µM, the TGI (TK-10 renal) was > 100 µM and the TGI (SK-OV-3 ovarian) was > 100 µM. The TGI (MALME-3M melanoma) was > 100 µM, the TGI (DU-145 prostate) was > 100 µM and the TGI (MDA-MB-231 breast) was 77.1 µM. For the same compound, the TGI (NCI-H226 lung) was 89.6 µM, the TGI (HS 578T breast) was > 100 µM and the TGI (HT29 colon) was > 100 µM. For the same compound, the TGI (SF-268 CNS) was > 100 µM, the TGI (A498 renal) was > 100 µM and the TGI (A549 NSCLC) was > 100 µM. The TGI (UACC-62 melanoma) was > 100 µM, the TGI (SK-MEL-2 melanoma) was > 100 µM and the TGI (MOLT-4 leukemia) was > 100 µM. The TGI (SNB-75 CNS) was > 100 µM, the TGI (RPMI-8226 leukemia) was 67.3 µM and the TGI (NCI-H23 lung) was > 100 µM. The TGI (OVCAR-3 ovarian) was > 100 µM, the TGI (EKVX NSCLC) was > 100 µM and the TGI (786-0 renal) was 96.5 µM. The TGI (HCT-116 colon) was 95.3 µM, the TGI (SW-620 colon) was > 100 µM and the TGI (OVCAR-8 ovarian) was > 100 µM. The TGI (OVCAR-4 ovarian) was > 100 µM, the TGI (RXF 393 renal) was 84.1 µM and the TGI (HCT-15 colon) was > 100 µM. The TGI (KM12 colon) was > 100 µM, the TGI (M14 melanoma) was > 100 µM and the TGI (UACC-257 melanoma) was > 100 µM. The TGI (UO-31 renal) was 51.2 µM, the TGI (MDA-MB-435) was > 100 µM and the TGI (SF-539 CNS) was > 100 µM. For the same compound, the TGI (OVCAR-5 ovarian) was > 100 µM, the TGI (COLO 205 colon) was 59.1 µM and the TGI (BT-549 breast) was > 100 µM. For the same compound, the TGI (NCI-H460 lung) was > 100 µM, the TGI (PC-3 prostate) was > 100 µM and the TGI (T-47D breast) was 91.9 µM. For the same compound, the TGI (MCF7 breast) was > 100 µM, the TGI (HL-60(TB) leukemia) was 97.3 µM and the TGI (SN12C renal) was > 100 µM. The TGI (SK-MEL-5 melanoma) was 78.6 µM, the TGI (NCI/ADR-RES ovarian) was > 100 µM and the TGI (CAKI-1 renal) was 34.5 µM. For the same compound, the TGI (IGROV1 ovarian) was > 100 µM, the TGI (NCI-H522 lung) was > 100 µM and the TGI (K-562 leukemia) was > 100 µM. The TGI (SNB-19 CNS) was > 100 µM, the TGI (CCRF-CEM leukemia) was > 100 µM and the TGI (LOX IMVI melanoma) was 43.6 µM. The TGI (MDA-N) was > 100 µM.
